From patent publication US20240173403A1, “Combination of AXL Antibodies and ACE Inhibitors in the Treatment of Fibrosis” (BERGENBIO ASA, priority 2021, published 2024)
“Also recorded” adds a separate entry of the source. Where two headings read alike, the source gives them in different places.

Tests used:
TIMP-1 = TIMP-1 levels in human PCKS culture supernatants (ELISA); assay type: cell-based
Experimental: (§1) PCKS were prepared from explanted kidney tissue and rested for 24 hours to allow the post-slicing stress period to elapse before experiments began. All PCKS were harvested at 96 hrs.
(§2) PCKS were incubated for a 24 hr rest period. Post-rest, PCKS were incubated for a further 72 hrs in the presence or absence of inhibitors. PCKS culture media, including all compounds, was refreshed and harvested at 24 hrs intervals. All PCKS were harvested at 96 hrs.
(§3) Tissue culture supernatant (n=3 paired wells) were collected every 24 hrs and snap frozen for quantification of soluble outputs. At 96 hrs n=4 PCKS were snap frozen for RNA extraction and n=2 PCKS were formalin fixed paraffin embedded (FFPE) for IHC.
(§4) Levels of collagen 1a1, IL-6, Hyaluronic Acid and TIMP-1 in the tissue culture supernatants (n=165 samples per donor) were quantified using R&D Duoset ELISA kits.

[1] = test system: αSMA (activated myofibroblasts); experiment: α-SMA staining of PCKS sections, % area positive; assay type: cell-based, human; conditions: 96 hrs harvest
Experimental: as §1, §3
FFPE tissue was cut into 5 μm sections and stained for Picrosirius Red and α-Smooth Muscle Actin (αSMA) (n=19 samples per donor). Analysis was performed by a pathology trained technical staff member without knowledge of the sample ID. High magnification images were taken of each slide and analysed for the surface area covered by the stain (e.g. percentage area positive for Oil Red O, Picrosirius or αSMA).
α-SMA stained PCKS sections were prepared. Up to 25 high magnification images (×20) from each PCKS were quantified for the percentage area of tissue positive for stain and averaged to give a mean tissue area positive for α-SMA.
Histological effects of treatments were assessed on the basis of changes in percentage positive area stained for αSMA (activated myofibroblasts) and Picrosirius Red (collagen deposition).

liver fibrosis = conditions: mice; Barcena et al. 2015; cited from earlier work
lung fibrosis = conditions: two mouse lung fibrosis models; Espindola et al. 2018; cited from earlier work
Collagen 1a1 = Collagen 1a1 levels in human PCKS culture supernatants (ELISA); assay type: cell-based
Experimental: as §1, §2, §3, §4
Levels of collagen 1a1 in the tissue culture supernatants were quantified using R&D Duoset ELISA kits.

IL-6 = IL-6 levels in human PCKS culture supernatants (ELISA); assay type: cell-based; conditions: two of the high doses of Bemcentinib; early time point (48 hrs)
Experimental: as §1, §2, §3, §4

kidney fibrosis = conditions: UUO mice, bemcentinib monotherapy, Landolt et al. 2019, cited from earlier work
Hyaluronic Acid = Hyaluronic Acid levels in human PCKS culture supernatants (ELISA); assay type: cell-based; conditions: Nintedanib 4 μM
Experimental: as §1, §2, §3, §4

[2] = Enalapril alone (0.75, 0.15 μM)
[3] = 4 μM, 72 hrs and 96 hrs of treatment, positive control
[4] = Tilvestamab monotherapy (1 to 125 μg/mL)

## Nc1nc(Nc2ccc3c(c2)CC[C@@H](N2CCCC2)CC3)nn1-c1cc2c(nn1)-c1ccccc1CCC2 [Bemcentinib, 1-(6,7-dihydro-5H-benzo[6,7]cyclohepta[1,2-c]pyridazin-3-yl)-N^3-((7-(S)-pyrrolidin-1-yl)-6,7,8,9-tetrahydro-5H-benzo[7]annulene-2-yl)-1H-1,2,4-triazole-3,5-diamine]
TIMP-1; Bemcentinib monotherapy, all doses (0.11, 0.33, 1, 3 μM)
  TIMP-1 production: able to reduce production of the fibrotic markers Collagen 1a1 and TIMP-1 at all doses
[1]; Bemcentinib singly, 3 μM
  αSMA, percentage positive area: reduce expression of the fibrotic marker αSMA; also recorded: reduced
Liver fibrosis
  liver fibrosis: reduced liver fibrosis
Lung fibrosis
  fibrosis development in lung: reduction in fibrosis development
Collagen 1a1; Bemcentinib monotherapy, all doses (0.11, 0.33, 1, 3 μM), not dose dependent
  Collagen 1a1 production: able to reduce production of the fibrotic markers Collagen 1a1 and TIMP-1 at all doses
IL-6
  IL-6 secretion: spike in IL-6 secretion
Kidney fibrosis
  fibrosis development in kidney: attenuate fibrosis and reduce inflammation
Kidney fibrosis; listed as bemcentinib
  fibrosis development in kidney: less fibrosis development

## CCOC(=O)[C@H](CCc1ccccc1)N[C@@H](C)C(=O)N1CCC[C@H]1C(=O)O [Enalapril]
TIMP-1; [2]
  TIMP-1 secretion: did not show any efficacy towards reducing TIMP-1 secretion
[1]; Enalapril singly, 0.15 μM
  αSMA, percentage positive area: reduced
[1]; Enalapril singly, 0.15 μM, listed as Enalaril
  αSMA, percentage positive area: reduce expression of the fibrotic marker αSMA
Collagen 1a1; [2]
  Collagen 1a1 secretion: did not show any efficacy towards reducing Collagen 1a1 secretion

## COC(=O)c1ccc2c(c1)NC(=O)/C2=C(\Nc1ccc(N(C)C(=O)CN2CCN(C)CC2)cc1)c1ccccc1 [Nintedanib]
Hyaluronic Acid
  Hyaluronic acid: readily reduced
TIMP-1; [3]
  TIMP-1 production: significantly inhibit TIMP-1 production
Collagen 1a1; [3]
  Collagen 1a1 production: inhibited Collagen 1a1 production

B1: Tilvestamab: novel humanized anti-AXL antibody that blocks GAS6-mediated AXL receptor activation; VH SEQ ID No.1, VL SEQ ID No.2 (antibody, V domains shown)
VH: EVQLVESGGGLVQPGGSLRLSCAASGYSFTDFYINWVRQAPGKGLEWVARIFPGGDNTYYNEKFKGRFTLSADTSKSTAYLQMNSLRAEDTAVYYCARRGLYYAMDYWGQGTLVTVSS
VL: DIQMTQSPSSLSASVGDRVTITCRSSQSLVHSNGIPYLHWYQQKPGKAPKLLIYRVSNRFSGVPSRFSGSGSGTDFTLTISSLQPEDFATYYCSQGTHVPPTFGQGTKVEIK
modifications: BGB149 VH; BGB149 VL
TIMP-1; [4]
  TIMP-1 secretion: no effect on reducing Collagen 1a1 or TIMP-1 secretion; also recorded: no effect on reducing TIMP-1 secretion
[1]; Tilvestamab singly, three of the highest doses
  αSMA, percentage positive area: did reduce αSMA; also recorded: reduced
Collagen 1a1; [4]
  Collagen 1a1 secretion: no effect on reducing Collagen 1a1 or TIMP-1 secretion; also recorded: no effect on reducing Collagen 1a1 secretion
